Patent publication US20250295652A1, “Inhibitors of Molluscum Contagiosum Infection and Methods Using the Same” (priority 2021, published 2025)
Where two headings read alike, the source gives them in different places.

Columns and labels:
mD4-VV surrogate virus = experiment: microbe, parasite or virus in culture; format: cell-based, mD4/vaccinia hybrid virus; details: Hybrid virus, BSC-1, read-out: mD4 EC50
[1] = target: E9/A20/D4 proteins (molluscum mD4) (Molluscum contagiosum virus, UniProt Q98260); experiment: biochemical
Chain of E9/A20/D4 proteins (molluscum mD4) (Q98260 1-226): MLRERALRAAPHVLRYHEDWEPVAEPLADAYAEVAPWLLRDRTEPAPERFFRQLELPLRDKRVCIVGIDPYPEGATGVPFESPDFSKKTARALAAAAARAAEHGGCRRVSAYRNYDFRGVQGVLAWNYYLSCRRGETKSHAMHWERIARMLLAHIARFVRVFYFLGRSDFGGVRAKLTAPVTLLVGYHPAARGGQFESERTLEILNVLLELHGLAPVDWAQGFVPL

D4 [2] = target: T1, D4 (Vaccinia virus, UniProt P04303, Y163F); format: binding; details: for thermal shift (in words): up to 50 μM
D4 [3] = target: T1, D4; format: binding; parameters: made in house; host or cells: bacterial cells (IPTG induction); purified for SPR, crude lysate for DARTS
D4 [4] = target: T1, D4; format: binding; parameters: made in house; host or cells: bacterial cells (IPTG induction); purified for SPR, crude lysate for DARTS; remark: listed apart in the source
VV = experiment: microbe, parasite or virus in culture; format: cell-based, vaccinia virus; details: Orthopoxvirus vaccinia, BSC-1, read-out: VV EC50
[5] = Solubility in receptor medium; details: 1×PBS/4% BSA receptor medium, typical IVPT study
Source text: For this study, human torso skin was used rather than a membrane. Initially, methods development was done to identify the receiving medium in the reservoir of the Franz cell apparatus which provided the greatest compound solubility so that percentages of full penetration would not be underestimated due to poor solubility.

SMILES	EC50 (mD4-VV surrogate virus)	IC50 [1]	also measured
CCC(C(=O)Nc1sccc1C(=O)NCc1ccc(F)cc1)c1ccccc1 (stereo not shown) [Compound 179, 2-(2-Phenylbutanamido)-N-(4-fluorobenzyl)thiophene-3-carboxamide]	9.5 µM	51.3 µM	
CCC(C(=O)Nc1scnc1C(=O)NCc1ccc(Cl)cc1)c1ccccc1 (stereo not shown) [Compound 163, 5-(2-Phenylbutanamido)-N-(4-chlorobenzyl)thiazole-4-carboxamide]	12.1 µM	> 100 µM	
O=C(NCc1ccc(F)cc1)c1nnsc1NC(=O)N1CCN(c2ccccn2)CC1 [Compound 180, N-(4-(4-Fluorobenzylcarbamoyl)-1,2,3-thiadiazol-5-yl)-4-(pyridin-2-yl)piperazine-1-carboxamide]	12.9 µM	39 µM	
Nc1ccn(C[C@@H](CO)OCP(=O)(O)O)c(=O)n1 [CDV, 1-((3-hydroxy-2-phosphonylmethoxy)propyl)cytosine]			ΔTm (D4 [2]; […] µM): −0.37 ± 0.14; ° C.; ΔTm (D4 [2]; 50 µM): −0.27 ± 0.37 °C; thermal shift (in words) (D4 [2]): no thermal shifts; SPR binding to D4 (in words) (D4 [3]): near-baseline signals; effect on D4 protein levels after Pronase proteolysis (in words) (D4 [4]): did not affect the protein levels of D4
COc1ccccc1CN(C)C(=O)c1ccsc1NC(=O)N1CCN(c2ccccn2)CC1 [Compound 172, N-(3-(N-(2-Methoxybenzyl)-N-methylcarbamoyl)thiophen-2-yl)-4-(pyridin-2-yl)piperazine-1-carboxamide]	22.6 µM	117 µM	
CN(Cc1ccccc1)C(=O)c1ccsc1NC(=O)N1CCN(c2ccccn2)CC1 [Compound 173, N-(3-(N-Benzyl-N-methylcarbamoyl)thiophen-2-yl)-4-(pyridin-2-yl)piperazine-1-carboxamide]	11.9 µM	> 200 µM	
O=C(NCc1ccc(F)c(F)c1)c1ccsc1NC(=O)N1CCN(c2ccccn2)CC1 [Compound 159, N-(3-(3,4-Difluorobenzylcarbamoyl)thiophen-2-yl)-4-(pyridin-2-yl)piperazine-1-carboxamide]	12.8 µM	118 µM	
CCC(C(=O)Nc1sc(C(N)=O)c(C)c1C(=O)OC)c1ccccc1 (single isomer, unassigned) [Compound 29, Methyl 2-(2-phenylbutanamido)-5-carbamoyl-4-methylthiophene-3-carboxylate]	19.7 µM	13.4 µM	EC50 (VV): 28 µM
O=C(NCc1ccc(Cl)cc1)c1nnsc1NC(=O)N1CCN(c2ccccc2)CC1 [Compound 84, N-(4-chlorobenzyl)-5-(4-phenylpiperazine-1-carboxamido)-1,2,3-thiadiazole-4-carboxamide]	10 µM		EC50 (VV): 9.4 µM
CCC(C(=O)Nc1snnc1-c1ccc(C(F)(F)F)cc1)c1ccccc1 (stereo not shown) [Compound 109, 2-Phenyl-N-[4-(4-trifluoromethyl-phenyl)-[1,2,3]thiadiazol-5-yl]-butyramide]	0.8 µM	68.6 µM	
O=C(NCc1ccc(Cl)cc1)c1nnsc1NC(=O)C1CCN(c2ccccn2)CC1 [Compound 167, N-(4-(4-Chlorobenzylcarbamoyl)-1,2,3-thiadiazol-5-yl)-1-(pyridin-2-yl)piperidine-4-carboxamide]	17.8 µM	98.6 µM	
CCC(C(=O)Nc1sccc1C(=O)NCc1ccc(F)c(F)c1)c1ccccc1 (stereo not shown) [Compound 160, 2-(2-Phenylbutanamido)-N-(3,4-difluorobenzyl)thiophene-3-carboxamide]	10.6 µM	128 µM	
O=C(NCc1ccc(Cl)nc1)c1ccsc1NC(=O)N1CCN(c2ccccn2)CC1 [Compound 170, N-(3-((6-Chloropyridin-3-yl)methylcarbamoyl)thiophen-2-yl)-4-(pyridin-2-yl)piperazine-1-carboxamide]	14.9 µM	> 200 µM	
O=C(NCc1ccc(Cl)cc1)c1ccsc1NC(=O)N1CCN(c2ccccn2)CC1 [Compound 111, 4-Pyridin-2-yl-piperazine-1-carboxylic acid [3-(4-chloro-benzyl carbamoyl)-thiophen-2-yl]-amide]	7 µM	63.3 µM	solubility sufficient to detect % of the applied amount [5]: ≤ 90%
O=C(NCCN1CCOCC1)Nc1snnc1C(=O)NCc1ccc(F)cc1 [Compound 182, 1-(4-(4-Fluorobenzylcarbamoyl)-1,2,3-thiadiazol-5-yl)-3-(2-morpholinoethyl)urea]	12.4 µM	> 100 µM	
O=C(NCCc1ccccn1)Nc1snnc1C(=O)NCc1ccc(F)cc1 [Compound 184, 1-(4-(4-Fluorobenzylcarbamoyl)-1,2,3-thiadiazol-5-yl)-3-(2-(pyridin-2-yl)ethyl)urea]	22.8 µM	60 µM	
O=C(NCCN1CCOCC1)Nc1snnc1C(=O)NCc1ccc(Cl)cc1 [Compound 183, 1-(4-(4-Chlorobenzylcarbamoyl)-1,2,3-thiadiazol-5-yl)-3-(2-morpholinoethyl)urea]	11.9 µM	> 100 µM	
O=C(NCc1ccc(F)cc1)c1ccsc1NC(=O)N1CCN(c2ccccn2)CC1 [Compound 181, N-(3-(4-Fluorobenzylcarbamoyl)thiophen-2-yl)-4-(pyridin-2-yl)piperazine-1-carboxamide]	16 µM	135 µM	
O=C(NN1C(=O)[C@@H]2[C@@H]3C=C[C@@H]([C@H]4C[C@@H]34)[C@@H]2C1=O)c1ccc(C(F)(F)F)cc1 [ST-246]			ΔTm (D4 [2]; […] µM): −0.37 ± 0.08; ° C.; ΔTm (D4 [2]; 50 µM): −0.26 ± 0.10 °C; thermal shift (in words) (D4 [2]): no thermal shifts; SPR binding to D4 (in words) (D4 [3]): near-baseline signals; effect on D4 protein levels after Pronase proteolysis (in words) (D4 [4]): did not affect the protein levels of D4
O=C(NCc1ccccc1)c1nnsc1NC(=O)N1CCN(c2ccccn2)CC1 [Compound 119, 4-Pyridin-2-yl-piperazine-1-carboxylic acid (4-benzylcarbamoyl-[1,2,3]thiadiazol-5-yl)-amide]	10.3 µM	> 100 µM	
O=C(NCc1ccc(Cl)cc1)c1nnsc1NC(=O)N1CCN(c2ccccc2F)CC1 [Compound 168, 4-(2-Fluoro-phenyl)-piperazine-1-carboxylic acid [4-(4-chloro-benzylcarbamoyl)-[1,2,3]thiadiazol-5-yl]-amide]	11.9 µM	26.3 µM	
O=C(NCc1ccc(Cl)cc1)c1nnsc1NC(=O)N1CCN(c2ccccn2)CC1 [Compound 83, N-(4-chlorobenzyl)-5-(4-(pyridin-2-yl)piperazine-1-carboxamido)-1,2,3-thiadiazole-4-carboxamide]	7.7 µM	31.4 µM	EC50 (VV): 7.3 µM
CCC(C(=O)Nc1sccc1C(=O)NCc1ccccc1)c1ccccc1 (stereo not shown) [Compound 161, 2-(2-Phenylbutanamido)-N-benzylthiophene-3-carboxamide]	12 µM	140 µM	
CCC(C(=O)Nc1sccc1C(=O)NCc1ccc(Cl)cc1)c1ccccc1 (stereo not shown) [Compound 110, 2-(2-Phenylbutanamido)-N-(4-chlorobenzyl)thiophene-3-carboxamide]	8 µM	> 100 µM	
CCC(C(=O)Nc1sc(C)c(C)c1C(=O)OC)c1ccccc1 (stereo not shown) [Compound 26, methyl 4,5-dimethyl-2-(2-phenylbutanamido)thiophene-3-carboxylate]			EC50 (VV): 45.3 µM
O=C(NCCc1ccccn1)Nc1snnc1C(=O)NCc1ccc(Cl)cc1 [Compound 185, 1-(4-(4-Chlorobenzylcarbamoyl)-1,2,3-thiadiazol-5-yl)-3-(2-(pyridin-2-yl)ethyl)urea]	9.6 µM	64.7 µM	
CCOC(=O)c1c(NC(=O)C2CCCCC2)sc(C(N)=O)c1C [Compound 4, ethyl 5-carbamoyl-2-(cyclohexanecarboxamido)-4-methylthiophene-3-carboxylate]			EC50 (VV): 48.9 µM
